Reference: ChEMBL document CHEMBL1201862, “PubChem BioAssay data set” (2004)
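Cultured in 96-well plates, cells were exposed to test compound for 48 hours across five concentrations. GI50: concentration for 50% inhibition of growth.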 Activity calls are given as the source filed them. No stated cut-off is given here; in the data, active = GI50 up to about 1.1 µM and inactive = higher.

Key:
Assay in all cases: growth of human tumour cells (NCI), 48 h
NCI-H23 = test system: NCI-H23
UO-31 = test system: UO-31
786-0 = test system: 786-0
LOX IMVI = test system: LOX IMVI
MOLT-4 = test system: MOLT-4
SNB-75 = test system: SNB-75
HCT-15 = test system: HCT-15
RXF 393 = test system: RXF 393
NCI-H522 = test system: NCI-H522
U-251 = test system: U-251
EKVX = test system: EKVX
Malme-3M = test system: Malme-3M
CCRF-CEM = test system: CCRF-CEM
UACC-257 = test system: UACC-257
TK-10 = test system: TK-10
SK-MEL-5 = test system: SK-MEL-5

| SMILES | GI50 (NCI-H23) | GI50 (UO-31) | GI50 (786-0) | GI50 (LOX IMVI) | GI50 (MOLT-4) | GI50 (SNB-75) | GI50 (HCT-15) [µM] | GI50 (RXF 393) | GI50 (NCI-H522) | GI50 (U-251) | GI50 (EKVX) | GI50 (Malme-3M) | GI50 (CCRF-CEM) | GI50 (UACC-257) | GI50 (TK-10) | GI50 (SK-MEL-5) |
| --- | --- | --- | --- | --- | --- | --- | --- | --- | --- | --- | --- | --- | --- | --- | --- | --- |
| C(=C1/CCCCC([n+]2ccccc2)=N1)/c1ccccc1 | > 100 µM (inactive) | > 100 µM (inactive) | > 100 µM (inactive) | > 100 µM (inactive) | > 100 µM (inactive) | > 100 µM (inactive) | > 100 | > 100 µM (inactive) | > 100 µM (inactive) | > 100 µM (inactive) | > 100 µM (inactive) | > 100 µM (inactive) | > 100 µM (inactive) | – | – | – |
| COc1ccc2[nH]c3c(c2c1)CCN(C)CC3 | > 100 µM (inactive) | – | > 100 µM (inactive) | > 100 µM (inactive) | > 100 µM (inactive) | > 100 µM (inactive) | > 100 | – | – | > 100 µM (inactive) | > 100 µM (inactive) | > 100 µM (inactive) | > 100 µM (inactive) | > 100 µM (inactive) | > 100 µM (inactive) | > 100 µM (inactive) |
| Cc1cccc(C)c1NC(=O)C(=O)C(C#N)c1ccccc1Cl (centres undefined) | > 100 µM (inactive) | > 100 µM (inactive) | > 100 µM (inactive) | – | > 100 µM (inactive) | > 100 µM (inactive) | > 100 | > 100 µM (inactive) | > 100 µM (inactive) | > 100 µM (inactive) | > 100 µM (inactive) | > 100 µM (inactive) | > 100 µM (inactive) | > 100 µM (inactive) | > 100 µM (inactive) | > 100 µM (inactive) |
| O=C(O)c1cc(=O)c2[nH]c3ccccc3c2s1 | > 100 µM (inactive) | > 100 µM (inactive) | > 100 µM (inactive) | – | > 100 µM (inactive) | 41.4 µM (inactive) | > 100 | > 100 µM (inactive) | > 100 µM (inactive) | – | > 100 µM (inactive) | > 100 µM (inactive) | > 100 µM (inactive) | > 100 µM (inactive) | > 100 µM (inactive) | > 100 µM (inactive) |
| O=C1c2ccccc2C(=O)c2c(O)c(NCCNCCO)cc(O)c21 | 3.77 µM (inactive) | 2.96 µM (inactive) | 3.33 µM (inactive) | 3.73 µM (inactive) | 3.02 µM (inactive) | 4.52 µM (inactive) | 3.64 | 4.74 µM (inactive) | – | – | 2.47 µM (inactive) | 12.1 µM (inactive) | 3.05 µM (inactive) | 6.59 µM (inactive) | 5 µM (inactive) | 3.44 µM (inactive) |
| Cc1cc2c3ccccc3n3c2c2c1OC1(C)CCC(C2C1)C3(C)C (centres undefined) | – | > 25 µM (inactive) | > 25 µM (inactive) | > 25 µM (inactive) | > 25 µM (inactive) | – | > 25 | – | > 25 µM (inactive) | > 25 µM (inactive) | – | > 25 µM (inactive) | > 25 µM (inactive) | – | > 25 µM (inactive) | > 25 µM (inactive) |
| COc1cc2ccnc3c2c(c1OC)-c1coc(SC)c1-3 | – | 26.4 µM (inactive) | 57 µM (inactive) | 82 µM (inactive) | 22.1 µM (inactive) | 19.7 µM (inactive) | > 100 | 4.67 µM (inactive) | 32.4 µM (inactive) | 67.1 µM (inactive) | – | > 100 µM (inactive) | > 10 µM (inactive) | > 100 µM (inactive) | > 100 µM (inactive) | 54.7 µM (inactive) |
| Clc1ccc2nc(-c3ccccc3)nc(Cl)c2c1 | 69.2 µM (inactive) | > 100 µM (inactive) | 33 µM (inactive) | – | > 100 µM (inactive) | 22.1 µM (inactive) | > 100 | 26.1 µM (inactive) | – | 68.1 µM (inactive) | 29.2 µM (inactive) | 24.2 µM (inactive) | 38.6 µM (inactive) | 45 µM (inactive) | 21.7 µM (inactive) | > 100 µM (inactive) |
| COc1ccc(C[C@H](N)C(=O)NC2C(CO)OC(n3cnc4c(N(C)C)ncnc43)C2O)cc1 (some centres undefined) | 0.161 µM (active) | 2.68 µM (inactive) | 0.695 µM (active) | 0.112 µM (active) | 0.13 µM (active) | 0.0807 µM (active) | 2.86 | 0.261 µM (active) | – | 0.0297 µM (active) | 0.202 µM (active) | 0.524 µM (active) | 0.145 µM (active) | 0.358 µM (active) | 0.67 µM (active) | 0.234 µM (active) |
| N#Cc1cc(NC(=O)c2ccccc2)c(=O)n2c1[nH]c1ccccc12 | 20 µM (inactive) | 18.3 µM (inactive) | 37.2 µM (inactive) | – | 29.6 µM (inactive) | 25.9 µM (inactive) | 31 | 13.6 µM (inactive) | 11 µM (inactive) | 26.9 µM (inactive) | 36.3 µM (inactive) | 23.9 µM (inactive) | 37.8 µM (inactive) | 33 µM (inactive) | 22.2 µM (inactive) | 12.7 µM (inactive) |
| COc1ccc2[nH]c3c(C)c4c(c(C)c3c2c1)CN(C)CC4 | – | 16.4 µM (inactive) | 14.6 µM (inactive) | 13.7 µM (inactive) | 18.5 µM (inactive) | 18 µM (inactive) | 16.1 | 19.3 µM (inactive) | 18 µM (inactive) | 17.7 µM (inactive) | – | 19.8 µM (inactive) | 3.22 µM (inactive) | 17.7 µM (inactive) | 23.4 µM (inactive) | 17.5 µM (inactive) |
| COCc1c(CO)cnc(C)c1OC1OC(CO)C(O)C(O)C1O (centres undefined) | – | > 100 µM (inactive) | > 100 µM (inactive) | > 100 µM (inactive) | > 100 µM (inactive) | > 100 µM (inactive) | > 100 | > 100 µM (inactive) | > 100 µM (inactive) | > 100 µM (inactive) | > 100 µM (inactive) | > 100 µM (inactive) | – | > 100 µM (inactive) | – | > 100 µM (inactive) |
| CCOC(=O)C1CC/C(=C(/C#N)C(=O)OC)N1 (centres undefined) | > 100 µM (inactive) | > 100 µM (inactive) | > 100 µM (inactive) | > 100 µM (inactive) | > 100 µM (inactive) | > 100 µM (inactive) | > 100 | > 100 µM (inactive) | > 100 µM (inactive) | > 100 µM (inactive) | > 100 µM (inactive) | – | > 100 µM (inactive) | > 100 µM (inactive) | > 100 µM (inactive) | > 100 µM (inactive) |
| Cc1ccc(S(=O)(=O)Nc2ccccc2C(C)(C)C)cc1 | 15.5 µM (inactive) | 18.6 µM (inactive) | 25.5 µM (inactive) | – | 20.9 µM (inactive) | 35.9 µM (inactive) | 20.7 | 6.31 µM (inactive) | – | 20.6 µM (inactive) | 33.2 µM (inactive) | 30.6 µM (inactive) | 21.4 µM (inactive) | 16.1 µM (inactive) | 37.1 µM (inactive) | 15.2 µM (inactive) |
| Clc1ccc2c(Cl)ncnc2c1 | > 100 µM (inactive) | > 100 µM (inactive) | > 100 µM (inactive) | > 100 µM (inactive) | > 100 µM (inactive) | 42.8 µM (inactive) | > 100 | – | > 100 µM (inactive) | > 100 µM (inactive) | 63.4 µM (inactive) | > 100 µM (inactive) | > 100 µM (inactive) | > 100 µM (inactive) | > 100 µM (inactive) | > 100 µM (inactive) |
